Measured values taken from publication PMC10937556, “Phenolic phytochemistry, in vitro, in silico, in vivo, and mechanistic anti-inflammatory and antioxidant evaluations of Habenaria digitata” (Frontiers in Pharmacology, 2024).
Like-named read-outs stand apart in the source and are kept apart here.

How the values were obtained:
[1] = ABTS free radical scavenging assay
Procedure: The ABTS anti-radicals’ analysis was carried out according to [Shah et al. (2015)]. The ABTS solution was prepared by dissolving ABTS salt (192 mg) in distilled H2O, transferred to a flask (50 mL), and volume was adjusted. Thereafter, 1 mL of the preceding solution was added to 17 µL of K₂S₂O₈ (140 mM) and placed in the dark for 24 h s. The experiment’s ultimate ABTS dilution was achieved by mixing 1 mL of the reaction mixture with 50 mL of methanol. The ABTS solution (190 µL) was mixed with the sample solution (10 µL) and added to 96-well plates, which were then incubated at room temperature in dark for 2 h. Following incubation, the measurement of ABTS color intensity was conducted using a microplate reader at 734 nm. Positive control solutions were prepared at values of 1,000–62.5 µM. The percentage of ABTS scavenging was determined by using the following equation: % ABTS scavenging=Control−Sample/control×100.

[2] = DPPH free radical scavenging assay
Procedure: The DPPH (anti-radicals) investigation was carried out according to our earlier reported protocols. Initially, a methanolic DPPH solution was prepared with a concentration of 0.1%. Subsequently, 100 µL of this solution was mixed with an equal volume of the test samples (100 µL) in 96-well plates, following a 30-min incubation period at 25°C ± 3 °C in the dark. Solutions with concentrations ranging from […] were prepared. Five concentrations of 1,000, 500, 250, 125, and 62.5 µM of the Trolox methanolic solution ([…]) were formed. A color reduction in DPPH was observed after incubation; a microplate reader was used, and absorbance was measured at 540 nm ([Mahnashi et al., 2022a]; [Huneif et al., 2022]). The percentage of scavenging was determined by the formula: Scavenging effect %=control absorbance−sample absorbance/control absorbance×100.

[3] = target: COX-1 (Ovis aries, UniProt P05979); experiment: Cyclooxygenase COX-1 inhibition assay; format: biochemical; conditions: for inhibition at 62.5 µg/mL / inhibition at 125 µg/mL / inhibition at 500 µg/mL: read-out: % COX-1 inhibition; for inhibition at 1000 µg/mL: 1,000 µg/mL
Sequence of COX-1 (P05979 25-600): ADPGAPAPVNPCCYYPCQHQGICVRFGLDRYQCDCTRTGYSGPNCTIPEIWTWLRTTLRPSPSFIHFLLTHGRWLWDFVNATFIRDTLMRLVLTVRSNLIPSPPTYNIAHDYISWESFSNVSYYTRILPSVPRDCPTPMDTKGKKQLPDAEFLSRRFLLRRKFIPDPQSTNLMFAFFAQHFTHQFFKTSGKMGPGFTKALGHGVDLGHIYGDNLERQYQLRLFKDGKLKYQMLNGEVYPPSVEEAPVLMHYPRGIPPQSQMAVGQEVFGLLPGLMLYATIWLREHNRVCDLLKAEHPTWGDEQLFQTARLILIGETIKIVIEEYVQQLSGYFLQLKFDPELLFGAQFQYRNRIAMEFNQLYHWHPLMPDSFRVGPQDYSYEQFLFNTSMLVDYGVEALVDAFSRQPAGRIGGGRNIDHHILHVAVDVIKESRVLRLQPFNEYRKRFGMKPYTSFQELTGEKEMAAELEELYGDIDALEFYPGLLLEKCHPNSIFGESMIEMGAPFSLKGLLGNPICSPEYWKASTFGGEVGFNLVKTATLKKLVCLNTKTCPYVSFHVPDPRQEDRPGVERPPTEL

Row | ABTS IC50 [1] [µg/mL] | DPPH IC50 [2] [µg/mL] | inhibition at 62.5 µg/mL ([3]; 62.50 μg/mL) [%] | inhibition at 125 µg/mL ([3]; 125 µg/mL) [%] | inhibition at 250 µg/mL [3] [%] | inhibition at 500 µg/mL ([3]; 500 µg/mL) [%] | inhibition at 1000 µg/mL [3] [%] | SMILES | ABTS % inhibition ([1]; 62.5 µg/mL) [%] | ABTS % inhibition ([1]; 125 µg/mL) [%] | ABTS % inhibition ([1]; 250 µg/mL) [%] | ABTS % inhibition ([1]; 500 µg/mL) [%] | ABTS % inhibition ([1]; 1,000 µg/mL) [%] | DPPH % inhibition ([2]; 62.5 µg/mL) [%] | DPPH % inhibition ([2]; 125 µg/mL) [%] | DPPH % inhibition ([2]; 250 µg/mL) [%] | DPPH % inhibition ([2]; 500 µg/mL) [%] | DPPH % inhibition ([2]; 1,000 µg/mL) [%] | inhibition at 62.5 µg/mL [3] [%] | inhibition at 125 µg/mL [3] [%] | inhibition at 500 µg/mL [3] [%]
1 | 42 | 40 | 33 ± 1.15 | 42.7 ± 0.89 | 49 ± 0.58 | 63.03 ± 0.23 | 71.33 ± 0.49 | C=Cc1ccc(O)cc1OC [Compound 4, 3-methoxy-4-vinylphenol] | 57.00 ± 1.15 | 61.67 ± 0.89 | 65.00 ± 0.58 | 72.03 ± 0.23 | 75.33 ± 0.49 | 58.15 ± 0.22 | 63.36 ± 0.71 | 68.39 ± 0.35 | 73.42 ± 0.12 | 77.73 ± 0.03 |  |  | 
2 | 30 | 16 | 29.15 ± 0.22 | 41.4 ± 0.71 | 47.39 ± 0.35 | 57.42 ± 0.12 | 67.73 ± 0.03 | C=Cc1cc(OC)c(O)c(OC)c1 [Compound 5, 2,6-dimethoxy-4-vinylphenol] | 60.59 ± 0.30 | 63.08 ± 1.04 | 68.76 ± 0.61 | 74.31 ± 0.58 | 79.49 ± 0.60 | 60.48 ± 0.23 | 63.99 ± 0.19 | 67.05 ± 0.13 | 71.75 ± 0.21 | 75.28 ± 0.42 |  |  | 

Row | SMILES | ABTS IC50 [1] [µg/mL] | DPPH IC50 [2] [µg/mL] | inhibition at 62.5 µg/mL ([3]; 62.50 μg/mL) [%] | inhibition at 125 µg/mL ([3]; 125 µg/mL) [%] | inhibition at 250 µg/mL [3] [%] | inhibition at 500 µg/mL ([3]; 500 µg/mL) [%] | inhibition at 1000 µg/mL [3] [%] | ABTS % inhibition ([1]; 62.5 µg/mL) [%] | ABTS % inhibition ([1]; 125 µg/mL) [%] | ABTS % inhibition ([1]; 250 µg/mL) [%] | ABTS % inhibition ([1]; 500 µg/mL) [%] | ABTS % inhibition ([1]; 1,000 µg/mL) [%] | DPPH % inhibition ([2]; 62.5 µg/mL) [%] | DPPH % inhibition ([2]; 125 µg/mL) [%] | DPPH % inhibition ([2]; 250 µg/mL) [%] | DPPH % inhibition ([2]; 500 µg/mL) [%] | DPPH % inhibition ([2]; 1,000 µg/mL) [%] | inhibition at 62.5 µg/mL [3] [%] | inhibition at 125 µg/mL [3] [%] | inhibition at 500 µg/mL [3] [%]
3 | Cc1ccc(C(C)C)c(O)c1 [Compound 3, 2-isopropyl-5-methylphenol] | 21 | 17 |  |  |  |  |  | 65.00 ± 0.30 | 72.54 ± 0.50 | 76.69 ± 0.77 | 83.67 ± 0.61 | 87.79 ± 0.63 | 62.98 ± 0.72 | 67.90 ± 0.96 | 72.91 ± 0.88 | 77.08 ± 0.47 | 81.03 ± 0.35 | 41.3 ± 1.01 | 46.7 ± 0.78 | 57.9 ± 0.97
